Assay results as given in patent publication US20250144067A1, “PERSONALIZED STARVATION THERAPY FOR CANCER” (Faeth Therapeutics, Inc., priority 2021, published 2025).
Where a name gives a salt, the structure may show the parent alone.

Tests used:
[1] = system: NCI-H292 lung cancer cells; assay: FDA drug screening, complete media vs cholesterol-free media with simvastatin (TABLE 2); format: cell-based, human; conditions: for Cholesterol-free media + simvastatin (0.04 μM) / Complete Media: NCI-H292 cells
[2] = system: NCI-H292 lung cancer cells; assay: FDA drug screening, complete media vs cholesterol-free media without statin (TABLE 1); format: cell-based, human
[3] = FDA drug library screen, cholesterol-free media with simvastatin 0.04 μM
[4] = FDA drug library screen, complete media
[5] = complete media minus cholesterol-free media + simvastatin, >0 enhanced anti-cancer activity, about 0 neutral, <0 antagonist
[6] = Complete minus Cholesterol-free, >0 enhanced anti-cancer activity, about 0 neutral, <0 antagonist
[7] = NCI-H292 cells, cholesterol-free media without statin
[8] = drug in cholesterol-free media with simvastatin 0.04 μM
[9] = complete media vs cholesterol-free media + simvastatin (0.04 μM), […]
[10] = Complete minus Cholesterol-free, […]
[11] = NCI-H292 cells in cholesterol-free media without statin
[12] = NCI-H292 cells in complete media
[13] = complete media vs cholesterol-free media + simvastatin (0.04 μM), >0 enhanced anti-cancer activity, about 0 neutral, <0 antagonist
[14] = complete vs cholesterol-free media, greater than 0 enhanced anti-cancer activity, about 0 neutral, below 0 antagonists
[15] = NCI-H292 cells, cholesterol-free media without statin, FDA drug library screen
[16] = NCI-H292 cells, complete media, FDA drug library screen
[17] = cholesterol-free media with simvastatin 0.04 μM, cell growth value in FDA drug screen

CC(C)(CCCCCC(O)CCCCCC(C)(C)C(=O)O)C(=O)O [Bempedoic acid]
Cholesterol-free media + simvastatin (0.04 μM) [1, 3]: 1.143 | Complete Media [1, 4]: 1.281 | Difference [1, 5]: 0.14 | Difference [2, 6]: −0.25 | Cholesterol-free [2, 7]: 1.343 | Complete ([2]; NCI-H292 cells, complete media): 1.094

CCN(CC)CCOC(=O)C(O)(c1ccccc1)c1ccccc1 [Benactyzine hydrochloride]
Cholesterol-free media + simvastatin (0.04 μM) [1, 8]: 1.159 | Complete Media ([1]; drug in complete media): 0.961 | Difference [1, 9]: −0.20 | Difference [2, 10]: −0.51 | Cholesterol-free [2, 11]: 1.39 | Complete [2, 12]: 0.878

CCOC(=O)[C@H](CCc1ccccc1)N[C@H]1CCc2ccccc2N(CC(=O)O)C1=O [Benazepril (hydrochloride)]
Cholesterol-free media + simvastatin (0.04 μM) [1, 3]: 1.077 | Complete Media [1, 4]: 0.9854 | Difference [1, 13]: −0.09 | Cholesterol-free [2, 7]: 1.314 | Complete ([2]; NCI-H292 cells, complete media): 0.8774 | Difference [2, 14]: −0.44

Cn1c(CCCC(=O)O)nc2cc(N(CCCl)CCCl)ccc21 [Bendamustine (hydrochloride)]
Cholesterol-free media + simvastatin (0.04 μM) [1, 8]: 1.142 | Complete Media ([1]; drug in complete media): 0.9554 | Difference [1, 9]: −0.19 | Difference [2, 10]: −0.21 | Cholesterol-free [2, 7]: 1.195 | Complete ([2]; NCI-H292 cells, complete media): 0.9866

NCCCC[C@H](N)C(=O)O.O=C(O)COc1nn(Cc2ccccc2)c2ccccc12 [Bendazac L-Lysine]
Cholesterol-free media + simvastatin (0.04 μM) [1, 3]: 1.079 | Complete Media [1, 4]: 0.922 | Difference [1, 9]: −0.16 | Cholesterol-free [2, 15]: 0.6107 | Complete [2, 16]: 1.115 | Difference ([2]; complete vs cholesterol-free media, […]): 0.50

c1ccc(Cc2nc3ccccc3[nH]2)cc1 [Bendazol]
Cholesterol-free media + simvastatin (0.04 μM) [1, 3]: 1.208 | Complete Media [1, 4]: 1.472 | Difference [1, 5]: 0.26 | Cholesterol-free [2, 15]: 1.234 | Complete [2, 16]: 1.354 | Difference ([2]; complete vs cholesterol-free media, >0 enhanced anti-cancer activity, about 0 neutral, <0 antagonist): 0.12

CC(Cc1cccc(C(F)(F)F)c1)NCCOC(=O)c1ccccc1 (centres unmarked) [Benfluorex (hydrochloride)]
Cholesterol-free media + simvastatin (0.04 μM) [1, 8]: 1.041 | Complete Media ([1]; drug in complete media): 0.8151 | Difference [1, 13]: −0.23 | Cholesterol-free [2, 7]: 1.106 | Complete ([2]; NCI-H292 cells, complete media): 0.6694 | Difference [2, 14]: −0.44

C/C(=C(\CCOP(=O)(O)O)SC(=O)c1ccccc1)N(C=O)Cc1cnc(C)nc1N [Benfotiamine]
Cholesterol-free media + simvastatin (0.04 μM) [1, 3]: 1.23 | Complete Media [1, 4]: 1.076 | Difference [1, 13]: −0.15 | Cholesterol-free [2, 7]: 1.163 | Complete ([2]; NCI-H292 cells, complete media): 0.7915 | Difference [2, 14]: −0.37

COC(=O)C1=C(C)NC(C)=C(C(=O)OC2CCCN(Cc3ccccc3)C2)C1c1cccc([N+](=O)[O-])c1 (centres unmarked) [Benidipine (hydrochloride)]
Cholesterol-free media + simvastatin (0.04 μM) [1, 17]: 1.054 | Difference [1, 5]: 0.11 | Cholesterol-free [2, 7]: 0.9476 | Complete ([2]; NCI-H292 cells, complete media): 0.5889 | Difference [2, 14]: −0.36

CC(=O)Nc1ccc(OC(=O)c2ccccc2OC(C)=O)cc1 [Benorilate]
Cholesterol-free media + simvastatin (0.04 μM) [1, 3]: 1.253 | Complete Media [1, 4]: 1.11 | Difference [1, 13]: −0.14 | Cholesterol-free [2, 7]: 1.212 | Complete ([2]; NCI-H292 cells, complete media): 0.8832 | Difference [2, 14]: −0.33

NC(CO)C(=O)NNCc1ccc(O)c(O)c1O (centres unmarked) [Benserazide (hydrochloride)]
Cholesterol-free media + simvastatin (0.04 μM) [1, 3]: 1.132 | Complete Media [1, 4]: 1.052 | Difference [1, 13]: −0.08 | Difference [2, 6]: 0.01 | Cholesterol-free [2, 15]: 1.039 | Complete [2, 16]: 1.047

O=C(O)c1ccc(NC(=O)[C@H](Cc2ccc(O)cc2)NC(=O)c2ccccc2)cc1 [Bentiromide]
Cholesterol-free media + simvastatin (0.04 μM) [1, 8]: 0.9161 | Complete Media ([1]; drug in complete media): 0.7117 | Difference [1, 13]: −0.20 | Difference [2, 6]: −0.23 | Cholesterol-free [2, 7]: 1.105 | Complete ([2]; NCI-H292 cells, complete media): 0.8729

NC(=NCc1ccccc1)NC(=O)c1nc(Cl)c(N)nc1N [Benzamil (hydrochloride)]
Cholesterol-free media + simvastatin (0.04 μM) ([1]; cholesterol-free media with simvastatin 0.04 μM, FDA drug library screen (TABLE 2)): 0.8193 | Complete Media ([1]; complete media, FDA drug library screen (TABLE 2)): 0.8118 | Difference ([1]; complete media minus cholesterol-free media + simvastatin (0.04 μM), >0 enhanced anti-cancer activity, about 0 neutral, <0 antagonist): −0.01 | Difference [2, 6]: −0.30 | Cholesterol-free [2, 7]: 0.9643 | Complete ([2]; NCI-H292 cells, complete media): 0.6686

CCc1oc2ccccc2c1C(=O)c1cc(Br)c(O)c(Br)c1 [Benzbromarone]
Cholesterol-free media + simvastatin (0.04 μM) [1, 17]: 0.9582 | Complete Media ([1]; complete media, cell growth value in FDA drug screen): 0.9819 | Difference [1, 5]: 0.02 | Difference ([2]; Complete minus Cholesterol-free, greater than 0 enhanced anti-cancer activity, about 0 neutral, below 0 antagonists): −0.92 | Cholesterol-free [2, 11]: 1.902 | Complete [2, 12]: 0.9837
